Test results published in patent US10265367B2, “Synergistic antibacterial effects of magnolia bark extract and L-arginine, N-α-lauroyl ethyl ester on plaque biofilm” (WM. WRIGLEY JR. COMPANY, priority 2015, dated 2019).

Tests used:
[1] = system: salivary bacteria biofilm; assay: In vitro biofilm assay (salivary bacteria on saliva-treated hydroxyapatite discs); format: cell-based
Procedure: Biofilms were prepared and tested by a modified method from Guggenheim (Guggenheim B., Gierstein E., Schupbach P, Shapiro S., 2001. “Validation of an in vitro biofilm model of supragingival plaque” Journal Dental Research 80:363-370), which is herein incorporated by reference. Briefly, biofilms were grown by incubating salivary bacteria with saliva-treated hydroxyapatite (HA) discs in sterile 24 well cell culture plates. Using media supplemented with saliva (25% total volume), and transferring discs frequently during the growth phase, encouraged growth of a dental plaque-like biofilm. This was developed for up to 72 hours. The biofilm was exposed to the test compositions (set forth in Table 1) three times a day, for five minutes, on days two and three of the experiment. Biofilm was quantified turbidometrically and by spectrophometric absorption at 600 nm.
The number of CFU for each biofilm was determined as follows. After vigorous shaking, 0.1 ml of the liquid from each biofilm cell was pipetted into 10 ml reverse osmosis (RO) H2O (100× dilution). The 100× dilution was shaken, and 0.1 ml was pipetted into 10 ml RO H2O (10,000× dilution). […] After the growth period, the number of colonies of bacteria growing on each plate were counted. […]
The IC40 of MBE was determined, and was used as a positive control concentration.

salivary bacteria = assay: Inhibition of biofilm formation on saliva-precoated pegs (Calgary device), MBIC/FBIC; format: cell-based
Procedure: 80 ml of saliva was collected from 4 donors and centrifuged at 3800 rpm to remove food debris. 15 ml supernatant was removed and mixed with an equal volume of 1×PBS. The mixture was then filter sterilized to collect saliva proteins that were used to precoat suspended pegs in the lid of the Calgary device for 3 hours. Meanwhile, the remaining saliva was centrifuged at 10,000 rpm to collect bacteria for biofilm inoculum. After centrifugation, the pellet was resuspended to an OD600 of 0.05 and premixed with defined concentrations of LAE-CF (99% purity, from Vedeqsa), MBE and a combination of the two actives at predetermined ratios. The actives and inoculum were added to the saliva precoated pegs and incubated overnight for at least 16 hours to allow for biofilm formation. Controls included growth (no actives) and media only (no bacteria).
The efficacy of the LAE and MBE synergistic effects are shown in the minimal biofilm inhibitory concentrations (MBIC) and fractional biofilm inhibitory concentration (FBIC) for the two actives. The FBIC was calculated according to the following formula: FBIC=[QA/Qa+QB/Qb] where
QA=the MBIC of component A combined with component B.
Qa=the MBIC of component A alone.
QB=the MBIC of component B combined with component A.
Qb=the MBIC of component B alone. […]

CCCCCCCCCCCC(=O)N[C@@H](CCCNC(=N)N)C(=O)OCC [LAE, L-arginine, N^α-lauroyl ethyl ester]
inhibition at 1000 ppm ([1]; 5 min, 1000 ppm, biofilm exposed 5 min three times a day on days 2 and 3): 82%
percent inhibition compared to the positive control ([1]; positive control = MBE at IC40): not better than the positive control
FBIC (fractional biofilm inhibitory concentration) (salivary bacteria; FBIC=QA/Qa+QB/Qb, <1 synergistic): 1
MBIC (minimal biofilm inhibitory concentration) (salivary bacteria; active alone, overnight at least 16 hours): 125 ppm
